In patent US20260191807A1, “COMPOSITIONS AND METHODS FOR TREATMENT OF PRADER-WILLI SYNDROME” (ERX Pharmaceuticals Inc., priority 2022, published 2026):

Columns and labels:
Assay type in all cases: in vivo
[1] = test system: C57BL/6-Magel2 mice; test: Body weights of C57BL/6 Magel2 mice during daily treatment; conditions: 0.2 mg/kg IP QD; for Body weights (expressed as a percentage of day-1 weight) / Body weights (in grams): mean; for body weight lost from day 1 to day 21: vehicle +2.7%
Protocol: (§1) In the study disclosed herein, celastrol at was administered intraperitoneally using a 30G needle at a dose of 0.2 mg/kg to five female Magel2 homozygous mice (−/−) and four male mice heterozygous for Magel2 (−/+). In addition, vehicle was administered to four male mice heterozygous for Magel2 (−/+) for 21 days.
(§2) C57BL/6-Magel2 mice were bred for purpose from cryo recovery by Jackson Labs (Bar Harbor, ME) and arrived at the testing facility at age 8 weeks.
(§3) All treatment volumes were 10 mL/kg. Utilizing the art-recognized nestlet shredding mouse model, the dose was administered by gavage (as capsule dosing is challenging in mice). Celastrol and the vehicle control were administered intraperitoneally using a 30G needle. All treatments were administered daily in the afternoon at 17:00 h, 1 hour before dark cycle from Day 1 to end of dosing.
(§4) Celastrol was dissolved in 50% Solutol/50% DMAC. The resulting stock solution aliquoted and stored at −80° C. until treatment day. On the day of treatment an aliquot of the stock solution was thawed and diluted 1:20 with saline to obtain the desired dosing solution strength in 5%
Mouse body weights were recorded from an Ohaus model CS 200 balance. Mice were weighed daily on Day 1 to Day 21. Body weight changes are expressed as grams and percent of the initial body weight (on Day 1, when treatments began).

[2] = test system: C57BL/6-Magel2 mice; test: Nestlet shredding test in C57BL/6 Magel2 mice; conditions: 0.2 mg/kg IP QD, mean
Protocol: The nestlet shredding behavioral effects of celastrol was evaluated in Magel2 knockout mice. Magel2 knockout has been used as a model of Prader-Willi syndrome to assess potential pharmacological treatments effect on behavior (Meziane 2015). Without wishing to be bound by theory, the Magel2 gene is a major causative gene of phenotypes in both Prader-Willi syndrome and autism (Schraff 2013). Further, nestlet shredding has been used to assess anxiety and compulsive behaviors in mouse models (Angoa-Perez 2013 and Dorniger 2020) and has been used to characterize clinically effective treatments for Prader-Willi syndrome (Fagen 2018 and McCandless 2017).
as §1, §2, §3, §4
The nestlet shredding test is an art-recognized animal model for human repetitive, anxiety, and/or compulsive behaviors. In the nestlet shredding test, a nestlet comprised of pulped fiber, e.g., cotton fiber, is preweighed and placed on top of cage bedding and the amount of the nestlet remaining intact after a test session of pre-determined time is evaluated.
Nestlet shredding was determined on day 1, day 11, and day 21 by placing a fresh nestlet prior to the dark cycle and measuring the weight of the remaining nestlet at 12 and 24 hours on an Ohaus model CS 200 balance. Percent shredding was calculated based on the initial nestlet weight.

[3] = test system: C57BL/6-Magel2 mice; test: Daily food intake of C57BL/6 Magel2 mice; conditions: for Food intake (food weights in g/day): mean
Protocol: as §1, §2, §3, §4
Daily food intake was calculated based on remaining food weight compared to food weight on the previous day using an Ohaus model CS 200 balance.

[4] = Day 1, Magel2 (−/+) heterozygous male mice
[5] = Day 1, Magel2 (−/−) homozygous female mice
[6] = Day 2, Magel2 (−/+) heterozygous male mice
[7] = Day 2, Magel2 (−/−) homozygous female mice
[8] = Day 4, Magel2 (−/+) heterozygous male mice
[9] = Day 4, Magel2 (−/−) homozygous female mice
[10] = Day 6, Magel2 (−/+) heterozygous male mice
[11] = Day 6, Magel2 (−/−) homozygous female mice
[12] = Day 8, Magel2 (−/+) heterozygous male mice
[13] = Day 8, Magel2 (−/−) homozygous female mice
[14] = Day 10, Magel2 (−/+) heterozygous male mice
[15] = Day 10, Magel2 (−/−) homozygous female mice
[16] = Day 11, Magel2 (−/+) heterozygous male mice
[17] = Day 11, Magel2 (−/−) homozygous female mice
[18] = Day 13, Magel2 (−/+) heterozygous male mice
[19] = Day 13, Magel2 (−/−) homozygous female mice
[20] = Day 15, Magel2 (−/+) heterozygous male mice
[21] = Day 15, Magel2 (−/−) homozygous female mice
[22] = Day 17, Magel2 (−/+) heterozygous male mice
[23] = Day 17, Magel2 (−/−) homozygous female mice
[24] = Day 18, Magel2 (−/+) heterozygous male mice
[25] = Day 18, Magel2 (−/−) homozygous female mice
[26] = Day 20, Magel2 (−/+) heterozygous male mice
[27] = Day 20, Magel2 (−/−) homozygous female mice
[28] = Day 21, Magel2 (−/+) heterozygous male mice
[29] = Day 21, Magel2 (−/−) homozygous female mice

## CC1=C(O)C(=O)C=C2C1=CC=C1[C@@]2(C)CC[C@@]2(C)[C@@H]3C[C@](C)(C(=O)O)CC[C@]3(C)CC[C@]12C [Celastrol]
[1]; [4]
  Body weights (expressed as a percentage of day-1 weight): 100.0%
  Body weights (in grams): 26.6 grams
[1]; [5]
  Body weights (expressed as a percentage of day-1 weight): 100.0%
  Body weights (in grams): 20.5 grams
[1]; [6]
  Body weights (expressed as a percentage of day-1 weight): 99.6%
  Body weights (in grams): 26.5 grams
[1]; [7]
  Body weights (expressed as a percentage of day-1 weight): 101.2%
  Body weights (in grams): 20.8 grams
[1]; [8]
  Body weights (expressed as a percentage of day-1 weight): 101.1%
  Body weights (in grams): 26.9 grams
[1]; [9]
  Body weights (expressed as a percentage of day-1 weight): 105.6%
  Body weights (in grams): 21.7 grams
[1]; [10]
  Body weights (expressed as a percentage of day-1 weight): 99.4%
  Body weights (in grams): 26.4 grams
[1]; [11]
  Body weights (expressed as a percentage of day-1 weight): 107.1%
  Body weights (in grams): 22.0 grams
[1]; [12]
  Body weights (expressed as a percentage of day-1 weight): 101.3%
  Body weights (in grams): 26.9 grams
[1]; [13]
  Body weights (expressed as a percentage of day-1 weight): 106.2%
  Body weights (in grams): 21.8 grams
[1]; [14]
  Body weights (expressed as a percentage of day-1 weight): 96.4%
  Body weights (in grams): 25.6 grams
[1]; [15]
  Body weights (expressed as a percentage of day-1 weight): 100.9%
  Body weights (in grams): 20.7 grams
[1]; [16]
  Body weights (expressed as a percentage of day-1 weight): 94.4%
  Body weights (in grams): 25.1 grams
[1]; [17]
  Body weights (expressed as a percentage of day-1 weight): 95.6%
  Body weights (in grams): 19.6 grams
[1]; [18]
  Body weights (expressed as a percentage of day-1 weight): 94.2%
  Body weights (in grams): 25.0 grams
[1]; [19]
  Body weights (expressed as a percentage of day-1 weight): 93.5%
  Body weights (in grams): 19.2 grams
[1]; [20]
  Body weights (expressed as a percentage of day-1 weight): 93.9%
  Body weights (in grams): 25.0 grams
[1]; [21]
  Body weights (expressed as a percentage of day-1 weight): 95.0%
  Body weights (in grams): 19.5 grams
[1]; [22]
  Body weights (expressed as a percentage of day-1 weight): 85.0%
  Body weights (in grams): 22.6 grams
[1]; [23]
  Body weights (expressed as a percentage of day-1 weight): 85.3%
  Body weights (in grams): 17.5 grams
[1]; [24]
  Body weights (expressed as a percentage of day-1 weight): 83.0%
  Body weights (in grams): 22.1 grams
[1]; [25]
  Body weights (expressed as a percentage of day-1 weight): 85.6%
  Body weights (in grams): 17.6 grams
[1]; [26]
  Body weights (expressed as a percentage of day-1 weight): 84.5%
  Body weights (in grams): 22.5 grams
[1]; [27]
  Body weights (expressed as a percentage of day-1 weight): 88.8%
  Body weights (in grams): 18.3 grams
[1]; [28]
  Body weights (expressed as a percentage of day-1 weight): 83.8%
  Body weights (in grams): 22.3 grams
[1]; [29]
  Body weights (expressed as a percentage of day-1 weight): 89.6%
  Body weights (in grams): 18.4 grams
[1]; female homozygous Magel2 (−/−) mice
  body weight lost from day 1 to day 21: 10.4%
[1]; male heterozygous Magel2 (−/+) mice
  body weight lost from day 1 to day 21: 16.2%
[2]; Day 1, 12 hour, Magel2 (−/+) heterozygous male mice
  Nestlet Shredding (percent of nestlet shredded): 100.0%
[2]; Day 1, 12 hour, Magel2 (−/−) homozygous female mice
  Nestlet Shredding (percent of nestlet shredded): 100.0%
[2]; Day 11, 12 hour, Magel2 (−/+) heterozygous male mice
  Nestlet Shredding (percent of nestlet shredded): 100.0%
[2]; Day 11, 12 hour, Magel2 (−/−) homozygous female mice
  Nestlet Shredding (percent of nestlet shredded): 54.7%
[2]; Day 11, 24 hour, Magel2 (−/+) heterozygous male mice
  Nestlet Shredding (percent of nestlet shredded): 100.0%
[2]; Day 11, 24 hour, Magel2 (−/−) homozygous female mice
  Nestlet Shredding (percent of nestlet shredded): 93.5%
[2]; Day 21, 12 hour, Magel2 (−/+) heterozygous male mice
  Nestlet Shredding (percent of nestlet shredded): 38.3%
[2]; Day 21, 12 hour, Magel2 (−/−) homozygous female mice
  Nestlet Shredding (percent of nestlet shredded): 54.7%
[2]; Day 21, 24 hour, Magel2 (−/+) heterozygous male mice
  Nestlet Shredding (percent of nestlet shredded): 44.6%
[2]; Day 21, 24 hour, Magel2 (−/−) homozygous female mice
  Nestlet Shredding (percent of nestlet shredded): 62.3%
[3]; Day 1, Magel2 (−/+) heterozygous male mice, 0.2 mg/kg IP QD
  Food intake (food weights in g/day): 6.6 g/day
[3]; Day 1, Magel2 (−/−) homozygous female mice, 0.2 mg/kg IP QD
  Food intake (food weights in g/day): 5.9 g/day
[3]; Day 2, Magel2 (−/+) heterozygous male mice, 0.2 mg/kg IP QD
  Food intake (food weights in g/day): 4.9 g/day
[3]; Day 2, Magel2 (−/−) homozygous female mice, 0.2 mg/kg IP QD
  Food intake (food weights in g/day): 5.9 g/day
[3]; Day 4, Magel2 (−/+) heterozygous male mice, 0.2 mg/kg IP QD
  Food intake (food weights in g/day): 7.0 g/day
[3]; Day 4, Magel2 (−/−) homozygous female mice, 0.2 mg/kg IP QD
  Food intake (food weights in g/day): 6.4 g/day
[3]; Day 6, Magel2 (−/+) heterozygous male mice, 0.2 mg/kg IP QD
  Food intake (food weights in g/day): 6.3 g/day
[3]; Day 6, Magel2 (−/−) homozygous female mice, 0.2 mg/kg IP QD
  Food intake (food weights in g/day): 6.2 g/day
[3]; Day 8, Magel2 (−/+) heterozygous male mice, 0.2 mg/kg IP QD
  Food intake (food weights in g/day): 5.2 g/day
[3]; Day 8, Magel2 (−/−) homozygous female mice, 0.2 mg/kg IP QD
  Food intake (food weights in g/day): 4.6 g/day
[3]; Day 10, Magel2 (−/+) heterozygous male mice, 0.2 mg/kg IP QD
  Food intake (food weights in g/day): 3.1 g/day
[3]; Day 10, Magel2 (−/−) homozygous female mice, 0.2 mg/kg IP QD
  Food intake (food weights in g/day): 2.4 g/day
[3]; Day 11, Magel2 (−/+) heterozygous male mice, 0.2 mg/kg IP QD
  Food intake (food weights in g/day): 3.9 g/day
[3]; Day 11, Magel2 (−/−) homozygous female mice, 0.2 mg/kg IP QD
  Food intake (food weights in g/day): 1.4 g/day
[3]; Day 13, Magel2 (−/+) heterozygous male mice, 0.2 mg/kg IP QD
  Food intake (food weights in g/day): 5.1 g/day
[3]; Day 13, Magel2 (−/−) homozygous female mice, 0.2 mg/kg IP QD
  Food intake (food weights in g/day): 4.0 g/day
[3]; Day 15, Magel2 (−/+) heterozygous male mice, 0.2 mg/kg IP QD
  Food intake (food weights in g/day): 5.9 g/day
[3]; Day 15, Magel2 (−/−) homozygous female mice, 0.2 mg/kg IP QD
  Food intake (food weights in g/day): 5.2 g/day
[3]; Day 17, Magel2 (−/+) heterozygous male mice, 0.2 mg/kg IP QD
  Food intake (food weights in g/day): 3.2 g/day
[3]; Day 17, Magel2 (−/−) homozygous female mice, 0.2 mg/kg IP QD
  Food intake (food weights in g/day): 2.2 g/day
[3]; Day 18, Magel2 (−/+) heterozygous male mice, 0.2 mg/kg IP QD
  Food intake (food weights in g/day): 2.5 g/day
[3]; Day 18, Magel2 (−/−) homozygous female mice, 0.2 mg/kg IP QD
  Food intake (food weights in g/day): 3.2 g/day
[3]; Day 20, Magel2 (−/+) heterozygous male mice, 0.2 mg/kg IP QD
  Food intake (food weights in g/day): 6.2 g/day
[3]; Day 20, Magel2 (−/−) homozygous female mice, 0.2 mg/kg IP QD
  Food intake (food weights in g/day): 4.6 g/day
[3]; Day 21, Magel2 (−/+) heterozygous male mice, 0.2 mg/kg IP QD
  Food intake (food weights in g/day): 5.0 g/day
[3]; Day 21, Magel2 (−/−) homozygous female mice, 0.2 mg/kg IP QD
  Food intake (food weights in g/day): 11.1 g/day
[3]; Day −2 (before dosing), Magel2 (−/+) heterozygous male mice
  Food intake (food weights in g/day): 5.0 g/day
[3]; Day −2 (before dosing), Magel2 (−/−) homozygous female mice
  Food intake (food weights in g/day): 3.2 g/day
[3]; treated Magel2 (−/+) and (−/−) groups versus vehicle, 0.2 mg/kg IP QD
  difference in food intake between the groups (in words): not a significant difference in food intake
